Assay: Inhibition of Trypanosoma cruzi trans-sialidase

SMILES: CC(=O)N[C@H]1[C@H]([C@H](O)[C@H](O)CO)OC(Oc2ccc([N+](=O)[O-])cc2C(F)F)(C(=O)O)C[C@H]1O (stereo partly specified)
- IC50: 600 µM

— ChEMBL document CHEMBL5108075, “Sialidase Inhibitors with Different Mechanisms” (J Med Chem, 2022)
